Holding throughout (test): HEK293 SEAP reporter assay, other TLRs (Biological Example 3)
Format in all cases: cell-based
(In general: In a reporter assay the amount or activity of a reporter protein is the signal.)

For experiment [1], the target named is T1, mouse TLR2 (Mus musculus, UniProt Q9QUN7).
T1 construct: host or cells: HEK293
The conditions noted are these: 16 hrs, up to 1 μM. The source says:
(§1) In this example, the activity of the Compound 1 to stimulate different human and mouse TLR pathways was investigated on HEK293 cells transfected with inducible SEAP (secreted embryonic alkaline phosphatase) reporter genes and also expressing different human TLRs (TLR2, TLR3, TLR4, TLR5, TLR7, TLR8, TLRS) or mouse TLRs (TLR2, TLR3, TLR4, TLR5, TLR7, TLR8, TLR13). Compound A
(§2) HEK293 reporter cell lines were purchased from Invivogen and cell lines were maintained in manufacture recommended culture medium with required supplemental antibiotics. On the day of assay, the cells were harvested with Accutase and counted by the Vi-CELL Cell Viability Analyzers. Cells were re-suspended in HEK blue detection medium and a total of 10000 cells were seeded in each well of a 384-well flat bottom plate. […] Assay plates were cultured at 37° C. in a CO2 incubator for 16 hrs. HEK-Blue™ Detection medium changes to a purple/blue color in the presence of secreted SEAP, which can be detected by spectrophotometry at 620-655 nm. Data was fitted with non-linear regression analysis, using a log(inhibitor) vs. response-variable slope, 3-parameter fit with GraphPad Prism.

Experiment [2] deals with T2, human TLR5 (Homo sapiens, UniProt O60602).
T2 construct: host or cells: HEK293
T2 sequence (O60602 21-858): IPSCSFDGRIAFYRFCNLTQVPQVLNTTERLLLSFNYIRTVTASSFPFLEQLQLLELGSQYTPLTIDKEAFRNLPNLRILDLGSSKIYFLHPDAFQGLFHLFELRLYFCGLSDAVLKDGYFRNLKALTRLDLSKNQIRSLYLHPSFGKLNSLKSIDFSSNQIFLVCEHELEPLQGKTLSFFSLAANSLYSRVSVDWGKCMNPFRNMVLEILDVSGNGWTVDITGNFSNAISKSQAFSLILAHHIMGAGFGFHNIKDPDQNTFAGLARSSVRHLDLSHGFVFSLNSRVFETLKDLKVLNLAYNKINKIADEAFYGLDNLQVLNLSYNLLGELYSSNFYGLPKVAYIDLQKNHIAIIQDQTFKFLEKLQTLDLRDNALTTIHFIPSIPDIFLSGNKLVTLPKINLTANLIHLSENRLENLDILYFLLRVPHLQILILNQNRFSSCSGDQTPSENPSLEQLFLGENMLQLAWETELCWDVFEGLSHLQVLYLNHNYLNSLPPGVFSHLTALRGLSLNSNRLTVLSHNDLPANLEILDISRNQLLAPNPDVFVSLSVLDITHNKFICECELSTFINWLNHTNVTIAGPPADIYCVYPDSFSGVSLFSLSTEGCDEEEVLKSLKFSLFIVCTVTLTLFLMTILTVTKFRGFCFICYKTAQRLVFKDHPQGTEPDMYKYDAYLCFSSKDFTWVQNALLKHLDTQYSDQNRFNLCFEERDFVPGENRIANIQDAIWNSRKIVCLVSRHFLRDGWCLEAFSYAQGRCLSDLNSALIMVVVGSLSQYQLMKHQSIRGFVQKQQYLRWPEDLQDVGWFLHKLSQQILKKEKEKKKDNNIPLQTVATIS
The following applies: 16 hrs, up to 1 μM.
Excerpt: as §1, §2

The target in experiment [3] is T3, mouse TLR7 (Mus musculus, UniProt P58681).
T3 construct: host or cells: HEK293
T3 sequence (P58681 27-1050): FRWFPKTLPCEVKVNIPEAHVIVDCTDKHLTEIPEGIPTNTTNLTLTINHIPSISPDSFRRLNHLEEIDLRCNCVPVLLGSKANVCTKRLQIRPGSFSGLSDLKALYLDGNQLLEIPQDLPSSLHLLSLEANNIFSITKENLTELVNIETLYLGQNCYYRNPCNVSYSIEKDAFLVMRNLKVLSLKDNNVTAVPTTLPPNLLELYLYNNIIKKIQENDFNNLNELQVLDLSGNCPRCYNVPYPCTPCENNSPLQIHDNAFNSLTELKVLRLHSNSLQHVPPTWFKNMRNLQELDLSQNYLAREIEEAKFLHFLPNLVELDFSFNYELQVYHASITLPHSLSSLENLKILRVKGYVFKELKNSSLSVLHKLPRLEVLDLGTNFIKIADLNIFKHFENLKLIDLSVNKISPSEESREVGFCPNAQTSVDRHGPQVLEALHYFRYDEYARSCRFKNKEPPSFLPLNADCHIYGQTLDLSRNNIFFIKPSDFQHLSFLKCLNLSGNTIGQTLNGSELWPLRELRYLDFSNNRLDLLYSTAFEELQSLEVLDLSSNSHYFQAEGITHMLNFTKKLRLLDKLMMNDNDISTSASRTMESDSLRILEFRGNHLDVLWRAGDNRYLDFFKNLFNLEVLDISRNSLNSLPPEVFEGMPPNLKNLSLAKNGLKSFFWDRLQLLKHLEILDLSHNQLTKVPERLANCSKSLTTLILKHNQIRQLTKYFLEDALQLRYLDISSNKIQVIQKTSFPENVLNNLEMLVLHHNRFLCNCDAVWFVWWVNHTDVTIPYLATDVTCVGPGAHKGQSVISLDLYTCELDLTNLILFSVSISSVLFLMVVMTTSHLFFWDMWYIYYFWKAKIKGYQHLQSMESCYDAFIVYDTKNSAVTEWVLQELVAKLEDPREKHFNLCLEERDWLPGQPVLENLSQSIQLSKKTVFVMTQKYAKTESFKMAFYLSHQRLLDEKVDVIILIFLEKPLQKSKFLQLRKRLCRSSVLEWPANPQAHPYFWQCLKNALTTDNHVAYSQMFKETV
The conditions noted are these: 16 hrs, * = Estimated.
Excerpt: as §1, §2

Experiment [4] has as its target T4, mouse TLR4 (Mus musculus, UniProt Q9JHF9+Q9QUK6).
T4 construct: host or cells: HEK293
T4 sequence (Q9QUK6 26-835): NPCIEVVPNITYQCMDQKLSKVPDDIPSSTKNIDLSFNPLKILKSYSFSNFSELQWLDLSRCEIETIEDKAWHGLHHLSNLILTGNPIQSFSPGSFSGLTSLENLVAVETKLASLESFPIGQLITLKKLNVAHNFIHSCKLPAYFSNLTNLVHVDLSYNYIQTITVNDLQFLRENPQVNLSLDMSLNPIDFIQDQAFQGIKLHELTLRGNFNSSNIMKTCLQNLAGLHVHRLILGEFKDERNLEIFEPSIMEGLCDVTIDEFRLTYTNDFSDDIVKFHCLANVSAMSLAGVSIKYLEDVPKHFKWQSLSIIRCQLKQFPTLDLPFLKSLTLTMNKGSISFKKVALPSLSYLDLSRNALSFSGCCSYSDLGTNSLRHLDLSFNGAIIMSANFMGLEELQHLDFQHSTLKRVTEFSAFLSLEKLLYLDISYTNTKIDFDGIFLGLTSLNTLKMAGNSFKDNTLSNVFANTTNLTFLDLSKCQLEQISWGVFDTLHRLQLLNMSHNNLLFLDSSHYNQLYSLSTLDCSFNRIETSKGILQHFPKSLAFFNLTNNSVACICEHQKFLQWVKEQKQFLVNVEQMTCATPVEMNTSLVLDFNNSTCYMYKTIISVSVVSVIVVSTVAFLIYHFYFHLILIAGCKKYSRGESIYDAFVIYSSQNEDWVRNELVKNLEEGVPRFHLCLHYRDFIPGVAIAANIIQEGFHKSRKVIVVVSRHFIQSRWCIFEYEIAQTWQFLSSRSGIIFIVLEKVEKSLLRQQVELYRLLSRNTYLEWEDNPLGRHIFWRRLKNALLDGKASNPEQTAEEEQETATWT
T4 sequence (Q9JHF9 19-160): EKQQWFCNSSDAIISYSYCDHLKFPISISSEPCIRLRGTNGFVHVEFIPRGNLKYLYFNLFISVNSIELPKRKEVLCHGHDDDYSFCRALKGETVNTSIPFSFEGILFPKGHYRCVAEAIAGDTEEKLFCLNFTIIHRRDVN
The following applies: 16 hrs, up to 1 μM.
Excerpt: as §1, §2

The target of experiment [5] is T5, mouse TLR5 (Mus musculus, UniProt Q9JLF7).
T5 construct: host or cells: HEK293
T5 sequence (Q9JLF7 27-859): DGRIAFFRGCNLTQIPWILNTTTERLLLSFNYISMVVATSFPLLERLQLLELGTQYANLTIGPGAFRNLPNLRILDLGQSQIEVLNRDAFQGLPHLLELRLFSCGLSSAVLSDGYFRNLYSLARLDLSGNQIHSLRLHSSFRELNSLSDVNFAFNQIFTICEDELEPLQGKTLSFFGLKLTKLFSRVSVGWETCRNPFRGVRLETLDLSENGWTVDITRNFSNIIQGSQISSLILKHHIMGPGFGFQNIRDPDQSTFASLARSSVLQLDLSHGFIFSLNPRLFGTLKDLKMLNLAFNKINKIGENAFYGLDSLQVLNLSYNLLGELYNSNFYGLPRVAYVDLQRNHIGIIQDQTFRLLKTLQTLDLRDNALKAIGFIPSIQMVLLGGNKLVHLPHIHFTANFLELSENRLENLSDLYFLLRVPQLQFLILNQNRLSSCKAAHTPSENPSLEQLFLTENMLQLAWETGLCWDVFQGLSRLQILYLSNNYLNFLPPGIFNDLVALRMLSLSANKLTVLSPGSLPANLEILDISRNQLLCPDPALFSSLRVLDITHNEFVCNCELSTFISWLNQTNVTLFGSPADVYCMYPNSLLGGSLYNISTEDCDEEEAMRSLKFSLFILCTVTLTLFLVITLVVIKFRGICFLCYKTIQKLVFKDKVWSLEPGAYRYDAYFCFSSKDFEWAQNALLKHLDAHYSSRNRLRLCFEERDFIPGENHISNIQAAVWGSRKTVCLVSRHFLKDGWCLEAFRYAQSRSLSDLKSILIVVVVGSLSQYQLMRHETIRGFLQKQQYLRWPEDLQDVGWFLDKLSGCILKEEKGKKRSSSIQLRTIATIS
The following applies: 16 hrs, up to 1 μM.
Excerpt: as §1, §2

Molecules are shown by their SMILES.

T1 sequence (Q9QUN7 25-784): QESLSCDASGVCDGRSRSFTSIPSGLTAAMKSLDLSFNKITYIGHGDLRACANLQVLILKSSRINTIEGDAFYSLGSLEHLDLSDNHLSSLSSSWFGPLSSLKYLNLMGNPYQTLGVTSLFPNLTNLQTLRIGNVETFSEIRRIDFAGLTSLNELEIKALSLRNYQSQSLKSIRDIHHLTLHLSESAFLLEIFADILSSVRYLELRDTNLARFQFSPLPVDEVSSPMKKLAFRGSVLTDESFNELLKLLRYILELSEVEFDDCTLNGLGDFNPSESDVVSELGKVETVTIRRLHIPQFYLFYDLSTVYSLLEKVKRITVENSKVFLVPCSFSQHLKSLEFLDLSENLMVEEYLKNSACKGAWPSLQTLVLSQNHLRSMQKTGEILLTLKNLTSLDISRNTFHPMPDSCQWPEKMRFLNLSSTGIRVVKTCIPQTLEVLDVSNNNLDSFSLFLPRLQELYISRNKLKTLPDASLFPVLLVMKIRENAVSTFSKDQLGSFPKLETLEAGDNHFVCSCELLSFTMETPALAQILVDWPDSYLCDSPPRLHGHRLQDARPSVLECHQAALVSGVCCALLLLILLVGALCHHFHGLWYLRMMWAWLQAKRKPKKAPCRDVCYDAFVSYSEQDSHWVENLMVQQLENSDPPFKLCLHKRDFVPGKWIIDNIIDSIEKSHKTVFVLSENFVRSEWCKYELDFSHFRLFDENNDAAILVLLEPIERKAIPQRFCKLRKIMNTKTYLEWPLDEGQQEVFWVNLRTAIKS

In the case of `CCCCn1nc2c(N)nc3ccccc3c2c1Cc1ccc(CN)cc1` [Compound 1, 1-(4-(aminomethyl)benzyl)-2-butyl-2H-pyrazolo[3,4-c]quinolin-4-amine], the EC50 in experiment [1] is more than 1 µM; in experiment [2], more than 1 µM; in experiment [3], approximately 0.0218 µM; in experiment [4], more than 1 µM; in experiment [5], more than 1 µM.

Regarding `CCCCc1nc2c(N)nc3ccccc3c2n1Cc1ccc(CN)cc1` [Compound A, reference compound], the EC50 in experiment [1] is more than 1 µM; in experiment [2] it was more than 1 µM; in experiment [3] it was 0.0159 µM; in experiment [4], more than 1 µM; in experiment [5], more than 1 µM.

In general, EC50 refers to the midpoint of the concentration-response curve.

Values taken from patent US20220259202A1, “1-(4-(AMINOMETHYL)BENZYL)-2-BUTYL-2H-PYRAZOLO[3,4-C]QUINOLIN-4-AMINE DERIVATIVES AND RELATED COMPOUNDS AS TOLL-LIKE RECEPTOR (TLR) 7/8 AGONISTS, AS WELL AS ANTIBODY DRUG CONJUGATES THEREOF FOR USE IN CANCER THERAPY AND DIAGNOSIS” (SUTRO BIOPHARMA, INC., priority 2019, published 2022).
